From publication PMC5974720, “Urate transport function of rat sodium‐dependent nucleobase transporter 1” (Physiological Reports, 2018)

Key:
[1] = molecular target: T1, rat sodium-dependent nucleobase transporter 1 (rSNBT1) (Rattus norvegicus, UniProt D2KX48); assay: inhibition of rSNBT1-specific […]urate uptake in stably transfected MDCKII cells; type: cell-based
T1 construct: gene Slc23a4
T1 sequence (D2KX48 1-614): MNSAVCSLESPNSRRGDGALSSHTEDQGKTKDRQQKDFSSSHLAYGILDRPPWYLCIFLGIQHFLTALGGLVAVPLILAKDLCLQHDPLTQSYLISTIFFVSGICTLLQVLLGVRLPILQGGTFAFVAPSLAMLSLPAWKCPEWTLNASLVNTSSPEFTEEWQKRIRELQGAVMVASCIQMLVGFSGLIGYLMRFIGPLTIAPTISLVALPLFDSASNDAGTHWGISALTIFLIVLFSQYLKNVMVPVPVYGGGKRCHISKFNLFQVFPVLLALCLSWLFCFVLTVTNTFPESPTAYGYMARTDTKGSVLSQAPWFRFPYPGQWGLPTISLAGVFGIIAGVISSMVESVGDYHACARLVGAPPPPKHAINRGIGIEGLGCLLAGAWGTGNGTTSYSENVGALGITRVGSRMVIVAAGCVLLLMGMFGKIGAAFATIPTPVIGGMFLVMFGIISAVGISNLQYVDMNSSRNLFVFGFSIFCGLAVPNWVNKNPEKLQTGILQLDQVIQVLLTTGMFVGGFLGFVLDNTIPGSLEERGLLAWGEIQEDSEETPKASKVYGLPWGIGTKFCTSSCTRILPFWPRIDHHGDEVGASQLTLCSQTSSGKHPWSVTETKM

[2] = molecular target: T2, rat breast cancer resistance protein (rBCRP) (Rattus norvegicus, UniProt Q80W57); assay: inhibition of rBCRP-mediated urate efflux in HEK293 cells co-expressing rSNBT1 ([…]); type: cell-based
T2 construct: gene Abcg2
T2 sequence (Q80W57 1-657): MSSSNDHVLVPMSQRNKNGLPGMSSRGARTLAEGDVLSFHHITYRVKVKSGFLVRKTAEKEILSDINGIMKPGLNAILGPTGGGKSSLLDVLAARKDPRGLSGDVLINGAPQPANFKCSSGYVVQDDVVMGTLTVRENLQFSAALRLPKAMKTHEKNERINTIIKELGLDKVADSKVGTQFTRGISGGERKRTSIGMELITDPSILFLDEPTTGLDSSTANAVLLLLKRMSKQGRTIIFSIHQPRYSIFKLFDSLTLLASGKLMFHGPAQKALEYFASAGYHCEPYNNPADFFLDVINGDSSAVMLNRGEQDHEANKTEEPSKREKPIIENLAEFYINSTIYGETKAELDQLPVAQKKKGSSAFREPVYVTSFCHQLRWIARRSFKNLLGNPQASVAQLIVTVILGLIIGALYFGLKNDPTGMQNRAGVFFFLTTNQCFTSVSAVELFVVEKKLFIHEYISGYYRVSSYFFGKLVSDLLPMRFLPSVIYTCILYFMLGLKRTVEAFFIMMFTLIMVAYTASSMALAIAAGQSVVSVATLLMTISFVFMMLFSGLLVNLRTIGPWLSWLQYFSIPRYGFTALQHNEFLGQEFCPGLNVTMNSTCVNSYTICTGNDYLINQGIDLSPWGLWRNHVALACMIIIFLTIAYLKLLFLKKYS

human OAT3 = molecular target: T3, human OAT3 (Homo sapiens, UniProt Q8TCC7); assay: […]urate uptake in transiently transfected HEK293 cells
T3 construct: gene SLC22A8
T3 sequence (Q8TCC7 1-542): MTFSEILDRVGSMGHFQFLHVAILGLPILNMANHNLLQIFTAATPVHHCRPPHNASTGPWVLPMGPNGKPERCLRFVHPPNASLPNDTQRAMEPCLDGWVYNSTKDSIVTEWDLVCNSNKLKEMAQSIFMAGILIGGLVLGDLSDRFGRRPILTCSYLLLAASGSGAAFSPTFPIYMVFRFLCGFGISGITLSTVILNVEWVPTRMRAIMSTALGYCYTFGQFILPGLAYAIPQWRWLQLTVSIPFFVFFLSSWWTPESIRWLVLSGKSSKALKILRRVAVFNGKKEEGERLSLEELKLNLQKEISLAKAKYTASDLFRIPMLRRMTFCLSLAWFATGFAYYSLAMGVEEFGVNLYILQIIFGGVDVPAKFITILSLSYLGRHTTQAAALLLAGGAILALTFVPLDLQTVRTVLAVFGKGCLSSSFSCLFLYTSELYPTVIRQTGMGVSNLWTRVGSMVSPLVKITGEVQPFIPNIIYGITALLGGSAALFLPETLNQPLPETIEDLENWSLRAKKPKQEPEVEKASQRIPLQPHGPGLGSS

[3] = molecular target: T4, human URAT1 (urate transporter 1) (Homo sapiens, UniProt Q96S37)
T4 construct: gene SLC22A12
T4 sequence (Q96S37 1-553): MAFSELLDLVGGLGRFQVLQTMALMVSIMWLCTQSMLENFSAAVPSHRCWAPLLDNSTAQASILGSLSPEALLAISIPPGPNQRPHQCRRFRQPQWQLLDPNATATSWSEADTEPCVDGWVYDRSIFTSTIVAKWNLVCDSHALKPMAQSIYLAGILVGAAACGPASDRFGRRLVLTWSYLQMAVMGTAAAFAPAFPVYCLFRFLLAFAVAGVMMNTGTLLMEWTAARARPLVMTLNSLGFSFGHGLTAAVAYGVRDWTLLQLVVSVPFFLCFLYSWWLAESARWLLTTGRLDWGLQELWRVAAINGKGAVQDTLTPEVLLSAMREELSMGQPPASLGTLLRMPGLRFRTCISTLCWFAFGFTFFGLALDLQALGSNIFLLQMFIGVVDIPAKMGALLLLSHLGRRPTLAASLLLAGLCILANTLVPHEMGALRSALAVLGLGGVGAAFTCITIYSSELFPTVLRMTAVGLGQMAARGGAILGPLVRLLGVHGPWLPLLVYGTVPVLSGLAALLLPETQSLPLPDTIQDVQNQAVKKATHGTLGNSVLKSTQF

[4] = molecular target: T5, human organic anion transporter 1 (OAT1) (Homo sapiens, UniProt Q4U2R8); assay: […]urate uptake in transiently transfected HEK293 cells; type: cell-based
T5 construct: gene SLC22A6
T5 sequence (Q4U2R8 1-563): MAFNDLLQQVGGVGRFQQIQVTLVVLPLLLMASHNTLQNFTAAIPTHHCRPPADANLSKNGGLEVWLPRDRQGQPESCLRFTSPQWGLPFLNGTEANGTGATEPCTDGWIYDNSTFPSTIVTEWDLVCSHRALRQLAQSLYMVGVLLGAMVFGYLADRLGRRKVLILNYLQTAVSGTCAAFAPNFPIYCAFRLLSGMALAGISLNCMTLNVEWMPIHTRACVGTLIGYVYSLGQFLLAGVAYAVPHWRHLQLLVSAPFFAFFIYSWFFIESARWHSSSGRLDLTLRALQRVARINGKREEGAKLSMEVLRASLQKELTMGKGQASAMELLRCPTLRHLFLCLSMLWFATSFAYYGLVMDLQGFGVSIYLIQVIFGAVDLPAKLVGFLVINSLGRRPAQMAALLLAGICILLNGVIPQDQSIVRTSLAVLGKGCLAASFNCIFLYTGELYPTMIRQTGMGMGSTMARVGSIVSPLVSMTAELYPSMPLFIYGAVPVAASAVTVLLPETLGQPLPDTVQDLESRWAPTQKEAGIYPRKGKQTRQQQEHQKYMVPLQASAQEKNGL

[5] = molecular target: T1, rat sodium-dependent nucleobase transporter 1 (rSNBT1); assay: inhibition of rSNBT1-specific […]urate uptake in stably transfected MDCKII cells; [3H]uracil uptake in transfected HEK293 cells; type: cell-based
[6] = substrate: O=c1[nH]c(=O)c2[nH]c(=O)[nH]c2[nH]1; assay: cells, lysate or membranes; type: cell-based, Rattus norvegicus; conditions: Na+ likely to share the same substrate recognition site with uracil

Cc1c[nH]c(=O)[nH]c1=O [Thymine]
IC50 ([1]; read-out: IC50): 8.8 ± 2.5 µM

Nc1nc2nc[nH]c2c(=O)[nH]1 [Guanine]
IC50 [1]: 2.7 ± 0.8 µM

COc1ccc2c3c([nH]c2c1)[C@H](CC(C)C)N1C(=O)[C@H](CCC(=O)OC(C)(C)C)NC(=O)[C@@H]1C3 [Ko143]
inhibition of rBCRP-mediated urate efflux in HEK293 cells co-expressing rSNBT1 [2]: Ko143 was effective in inhibiting rBCRP‐mediated urate efflux almost completely at that concentration

O=c1[nH]cnc2nc[nH]c12 [Hypoxanthine]
IC50 ([1]; read-out: IC50): 10.1 ± 2.4 µM

O=c1[nH]c(=O)c2[nH]c(=O)[nH]c2[nH]1 [urate]
[14C]urate uptake in transiently transfected HEK293 cells (human OAT3): When transiently introduced into HEK293 cells, all those transporters raised urate uptake, but to lesser extents than rSNBT1.
[14C]urate uptake in transiently transfected HEK293 cells [3]: When transiently introduced into HEK293 cells, all those transporters raised urate uptake, but to lesser extents than rSNBT1.
[14C]urate uptake in transiently transfected HEK293 cells [4]: When transiently introduced into HEK293 cells, all those transporters raised urate uptake, but to lesser extents than rSNBT1.

O=c1cc[nH]c(=O)[nH]1 [Uracil]
IC50 [5]: 28.4 ± 8.5 µM

B1: rat sodium-dependent nucleobase transporter 1 (rSNBT1) (Rattus norvegicus) (protein)
chain: T1 sequence (D2KX48 1-614)
Km [6]: 433 ± 113 µmol/L
